Earlier results in paper PMC12175978, “First-in-Human Serum Stability Studies of [^177Lu]Lu-AMTG: A Step Toward Improved GRPR-Targeted Radiopharmaceutical Therapy” (Journal of Nuclear Medicine, 2025).
Like-named read-outs stand apart in the source and are kept apart here.

in vivo serum stability in humans (in words) (in vivo)	in vivo serum stability in humans (in words) (human)	Substance
very stable	–	[^177Lu]Lu-DOTATATE
–	very stable	[^177Lu]Lu-PSMA-617
